These results are taken from publication PMC9464622, “The collectin SP-A and its trimeric recombinant fragment protect alveolar epithelial cells from the cytotoxic and proinflammatory effects of human cathelicidin in vitro” (Frontiers in Immunology, 2022).

One series concerns the target T1, human SP-A (Homo sapiens, UniProt Q8IWL1+Q8IWL2).
T1 construct: Human SP-A was isolated from bronchoalveolar lavage fluid of patients with alveolar proteinosis; from tissue; host or cells: bronchoalveolar lavage fluid of patients with alveolar proteinosis
The experiment in a line: Binding of LL-37 to SP-A by intrinsic tryptophan fluorescence titration. On the procedure: (§1) Fluorescence measurements were carried out in 5 x 5 quartz cuvettes using an SLM-Aminco AB-2 spectrofluorimeter equipped with a thermostated cuvette holder (± 0.1°C; Spectronic, Waltham, MA, USA). The slit widths were 4 nm for the excitation and emission beams. The tryptophan fluorescence emission spectrum of SP-A and rfhSP-A was recorded from 305 to 400 nm on excitation at 295 nm at 25°C in 5 mM Tris HCl buffer (pH 7.4), with or without 150 mM NaCl. Subsequently, the titration experiment was started by adding increasing amounts of LL-37 to the protein solution in the cuvette. The fluorescence intensity readings were corrected for the dilution caused by LL-37 addition.
(§2) The change in the fluorescence of SP-A (or rfhSP-A) at the emission wavelength maximum was monitored as a function of LL-37 concentration, and the titration data were analyzed by nonlinear least squares fitting to the Hill equation, as previously reported ([24], [35], [36]):
(§3) (1) ΔF/ΔFmax=[L]^nH/([L]^nH+KD)
(§4) where ΔF is the change in fluorescence intensity at 337 nm relative to the intensity of free SP-A (for free rfhSP-A, the emission wavelength maximum was 342 nm); ΔFmax is the change in fluorescence intensity at saturating LL-37 concentrations; KD is the apparent equilibrium dissociation constant; [L] is the molar concentration of free LL-37; and nH is the Hill coefficient.

Series [1] concerns the target T2, rfhSP-A (recombinant trimeric fragment of human SP-A) (Homo sapiens, UniProt Q8IWL2).
T2 construct: including the globular carbohydrate recognition domain (CRD), neck, and 8 x Gly-Xaa-Yaa repeats of the collagen stalk; His6 (N, cleaved yes); NT* solubility tag (spider silk) with coxsackievirus 3C protease site (N, cleaved yes); made in house; host or cells: Escherichia coli BL21 (DE3)
In words: Binding of LL-37 to rfhSP-A by intrinsic tryptophan fluorescence titration. On the procedure:
as §1, §2, §3, §4

In series [2] the test system is A549 cells. Type of series: cell-based, human. The note with it: LL-37 2.5 µM, SP-A 0.15 µM, rfhSP-A 0.88 µM, 30 min 37°C; complexes vs LL-37 alone p < 0.001. How it is done:
(§5) Human cell lines of alveolar basal epithelium A549 (ATTC® CCL-185TM) and monocytes U937 (ATTC® CRL-1593.2TM) were incubated in RPMI 1640 supplemented with 10% (v/v) heat-inactivated fetal bovine serum (FBS), antibiotics (100 U/ml penicillin and 100 μg/ml streptomycin), and 2 mM L-glutamine (BioWhittacker).
(§6) Incorporation of Sytox Green in A549 cells was analyzed by confocal microscopy and flow cytometry analysis.
For confocal microscopy analysis, cells were seeded to a density of 30,000 cells per well in a 24-well tissue culture plate for 18 h in RPMI 1640 tissue culture medium supplemented with 100 U/ml penicillin, 100 μg/ml streptomycin, 2 mM L-glutamine, and with 5% FBS. The following day, Sytox Green (1 µM, final concentration) was added to the wells 10 minutes before the addition of 2.5 µM (11.25 µg/ml) LL-37 and/or 0.15 µM (100 µg/ml) SP-A or 0.88 µM (50 µg/ml) rfhSP-A for an additional 30 minutes. At the end of the incubation, fluorescence and differential interference contrast micrographs were taken under an Olympus FV1200 confocal system. Quantification of permeabilized cells (Sytox Green+) per cell number was performed using Image J software on each of 12 micrographs per treatment and experiment.

Series [3] has as its system A549 cells. Type of series: cell-based, human. The settings on record: LL-37 2.5 µM, SP-A 0.15 µM, rfhSP-A 0.88 µM, 15-60 min 37°C; complexes vs LL-37 alone p < 0.001. On the procedure:
as §5, §6
(§7) For flow cytometry analysis, A549 cells were grown in RPMI 1640 medium supplemented with antibiotics, 2 mM L-glutamine, and 10% FBS. […] A-438079 stock was resuspended in DMSO to a final concentration of 30 mM and aliquots were stored at 4°C. Cell fluorescence was analyzed after 15, 30 and 60 minutes in a Becton-Dickinson FACS Calibur cytometer, using Cell Quest software.

In series [4] the test system is A549 cells. In words: Propidium iodide uptake, A549. Type of series: cell-based, human. The note with it: LL-37 2.5 µM, SP-A 0.15 µM, rfhSP-A 0.88 µM, 15-60 min, 37°C, flow cytometry. On the procedure:
as §5
(§8) The incorporation of PI in A549 and U937 cell lines was analyzed by flow cytometry. Cells were cultured 18 h in RPMI 1640 medium supplemented with antibiotics, 2 mM L-glutamine, and 10% FBS. Then, cells were harvested and incubated in PBS with 10 µg/ml PI in the presence or absence of 2.5 µM LL-37, 0.15 µM SP-A or 0.88 µM rfhSP-A, and combinations thereof. A549 were incubated at 500,000 cells/ml density and U937 at 1,000,000 cells/ml. PI incorporation was measured after 15, 30, 45 and 60 minutes by flow cytometry. In some experiments, cells were pre-treated with 1 or 10 µM A-438079 or vehicle (DMSO).
A general note: Flow cytometry measures light scatter and fluorescence of single cells or particles in a stream.

In a further series the test system is U937 cells. In words: Propidium iodide uptake, U937. Type of series: cell-based, human. The settings on record: LL-37 2.5 µM, SP-A 0.15 µM, rfhSP-A 0.88 µM, 15-60 min, 37°C, flow cytometry. On the procedure: as §5, §8
Series [5] has as its system P2X7 channels, A549 pneumocytes. Type of series: cell-based, human. The note with it: A-438079 10 µM, 15 min pre-treatment; LL-37 2.5 µM, SP-A 0.15 µM, rfhSP-A 0.88 µM, 1 hour. How it is done:
as §7, §8

Series [6] deals with P2X7 channels, U937 monocytes. Type of series: cell-based, human. The note with it: A-438079 10 µM, 15 min pre-treatment; LL-37 2.5 µM, SP-A 0.15 µM, rfhSP-A 0.88 µM, 1 hour. How it is done:
as §7, §8

T1 sequence (Q8IWL2 21-248): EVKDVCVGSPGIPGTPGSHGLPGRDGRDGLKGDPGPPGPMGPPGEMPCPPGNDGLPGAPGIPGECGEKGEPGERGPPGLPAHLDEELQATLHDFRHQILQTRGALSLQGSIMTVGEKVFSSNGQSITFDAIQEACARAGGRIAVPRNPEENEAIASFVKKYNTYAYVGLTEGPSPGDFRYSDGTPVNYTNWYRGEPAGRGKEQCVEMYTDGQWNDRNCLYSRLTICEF
T1 sequence (Q8IWL1 21-248): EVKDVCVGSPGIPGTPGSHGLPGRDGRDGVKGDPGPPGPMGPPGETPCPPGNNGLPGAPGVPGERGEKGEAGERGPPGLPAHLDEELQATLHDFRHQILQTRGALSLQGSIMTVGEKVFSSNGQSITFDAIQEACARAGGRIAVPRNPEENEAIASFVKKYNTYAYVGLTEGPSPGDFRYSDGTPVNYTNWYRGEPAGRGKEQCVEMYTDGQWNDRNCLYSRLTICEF
T2 sequence (Q8IWL2 77-248 limits assumed): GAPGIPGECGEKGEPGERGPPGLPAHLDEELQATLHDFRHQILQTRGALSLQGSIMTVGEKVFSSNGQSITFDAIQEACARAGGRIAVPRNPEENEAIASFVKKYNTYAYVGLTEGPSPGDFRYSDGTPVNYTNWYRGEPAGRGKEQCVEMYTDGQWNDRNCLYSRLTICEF

For the compound `CC[C@H](C)[C@H](NC(=O)[C@H](CCCCN)NC(=O)[C@H](CCC(=O)O)NC(=O)[C@H](CCCCN)NC(=O)[C@H](CO)NC(=O)[C@H](CCCCN)NC(=O)[C@H](CCCNC(=N)N)NC(=O)[C@H](Cc1ccccc1)NC(=O)[C@H](Cc1ccccc1)NC(=O)[C@H](CC(=O)O)NC(=O)CNC(=O)[C@H](CC(C)C)NC(=O)[C@@H](N)CC(C)C)C(=O)NCC(=O)N[C@@H](CCCCN)C(=O)N[C@@H](CCC(=O)O)C(=O)N[C@@H](Cc1ccccc1)C(=O)N[C@@H](CCCCN)C(=O)N[C@@H](CCCNC(=N)N)C(=O)N[C@H](C(=O)N[C@H](C(=O)N[C@@H](CCC(N)=O)C(=O)N[C@@H](CCCNC(=N)N)C(=O)N[C@H](C(=O)N[C@@H](CCCCN)C(=O)N[C@@H](CC(=O)O)C(=O)N[C@@H](Cc1ccccc1)C(=O)N[C@@H](CC(C)C)C(=O)N[C@@H](CCCNC(=N)N)C(=O)N[C@@H](CC(N)=O)C(=O)N[C@@H](CC(C)C)C(=O)N[C@H](C(=O)N1CCC[C@H]1C(=O)N[C@@H](CCCNC(=N)N)C(=O)N[C@H](C(=O)N[C@@H](CCC(=O)O)C(=O)N[C@@H](CO)C(=O)O)[C@@H](C)O)C(C)C)[C@@H](C)CC)C(C)C)[C@@H](C)CC` [LL-37], the dissociation constant Kd was found to be 0.45 ± 0.01 nM on human SP-A and 1.2 ± 0.7 nM in series [1]. The “Sytox Green incorporation, A549, confocal” value with A549 cells [2] is on record as “induced Sytox Green incorporation in human pneumocytes”. In the series on A549 cells [3], the “Sytox Green incorporation, A549, flow cytometry” value is “induced Sytox Green incorporation in human pneumocytes”. Besides, the “PI uptake, A549 pneumocytes” value with A549 cells [4] is recorded as “induced significant PI incorporation into human cells as a function of time”. In addition, the “PI uptake, U937 monocytes” value in the series with U937 cells is “induced significant PI incorporation into human cells as a function of time”. Further, the “LL-37-induced dye uptake with / without P2X7 inhibitor, A549” value in series [5] was “partially mediated by activation of P2X7 channels”. The “LL-37-induced dye uptake with / without P2X7 inhibitor, U937” value in series [6] is listed as “partially mediated by activation of P2X7 channels”.

A word on the Kd: it is a measure of binding affinity in units of concentration.
